From article PMC12254266, “Multicolored sequential resonance energy transfer for detection of simultaneous ligand binding at G protein-coupled receptors” (Nature Communications, 2025)
Several values for one entry are separate records, joined by “and”; a condition that tells them apart may be missing. Equal entries are not always repeated.

Assays:
FFA1 = FFA1 (Homo sapiens, UniProt O14842); test: Ca2+ mobilisation (Fura2) in Flp-In T-REx 293 cells expressing Nluc-FFA1, FFA1-Nluc or untagged FFA1; format: cell-based; parameters: expressed in transfected cells; conditions: for pEC50: Ca2+ data, mean±SEM; for pEC50 / EMax: NR = No response; for Ca2+ Response as a % of T360 Response: single technical replicates; for EMax: percentage of response to 10 μM T360
Protocol: Nluc-FFA1, FFA1-Nluc or untagged FFA1 Flp-In T-REx 293 cells were plated at 50,000 cells per well in poly-D-lysine coated black clear bottom 96-well plates. Cells were then cultured for 24 h until reaching confluency before culture medium was replaced with medium containing 100 ng/mL of doxycycline to induce receptor expression. Cells were cultured for a further 24 h before the assay. On the day of the assay culture medium was removed and replaced with medium containing 3 μM Fura2-AM Ca^2+ dye. […] Fura2 fluorescent emission at 520 nm following excitation with each of 340 and 380 nm was measured in regular intervals both before and after adding test compounds for a total of 90 s per well. Calcium responses were determined by taking the peak 340/380 ratio after first subtracting the ratios obtained prior to addition of test compound.

FFA1-Nluc = FFA1-Nluc (Homo sapiens, UniProt O14842); test: DISCo-BRET (endpoint, spectra scan, kinetics) with TUG-2591 and TUG-2597 at C terminal Nluc tagged FFA1; format: binding; parameters: expressed in transfected cells; conditions: for Specific BRET (690/540), % of control: Figure 4Aiii; for Specific BRET (690/540), % of control / Specific BRET (540/450), % of control: single replicate values (technical duplicate); for Specific BRET (540/450), % of control: Figure 4Biii
Protocol: Nluc-FFA1 or FFA1-Nluc Flp-In T-REx 293 cells were plated at 50,000 cells per well in poly-D-lysine coated white 96-well plates. Cells were cultured for 24 h in the plate before medium was replaced with medium containing 100 ng/mL of doxycycline to induce receptor expression. After culturing for a further 24 h, culture medium was removed, cells washed with HBSS and incubated in HBSS for 30 min. For all DISCo-BRET formats Nano-Glo substrate was then added at a 1:800 final dilution and cells incubated for 10 min. Following substrate addition experimental set up different among the three formats: endpoint, spectra scan, and kinetics.
For endpoint experiments all fluorescent and unlabelled ligands were added to the cells and incubated for 5 min at 37 °C. Luminescent emission was then measured using a CLARIOstar microplate reader with monochromator set at 450–60 nm (Nluc), 540−60 nm (NBD) and 690–100 nm (SulfoCy5). BRET ratios were then calculated as either SulfoCy5 emission divided by NBD emission, SulfoCy5 emission divided by Nluc emission, or NBD emission divided by Nluc emission.
For spectra scan experiments all indicated fluorescent and unlabelled ligands were added to the cells and cells incubated for 5 min at 37 °C. Luminescence emissions were then measured from each well of the plate from 440 nm – 740 nm with a 5 nm resolution using a CLARIOstar microplate. Luminescent emission spectra were then normalised as a percentage of the maximal Nluc emission peak ( ~ 460 nm), then subtracted with the spectrum obtained in the presence of high concentrations of ligands competing for both binding sites to obtain specific BRET binding spectra.
In kinetic DISCo-BRET experiments plates were placed directly in a CLARIOstar plate reader set to 25 °C 10 min after Nano-Glo substrate addition. Luminescent measurements were then taken with three sequential measurements per well with the monochromator set to 450–60 nm (Nluc), 540 - 60 nm (NBD) and 690–100 nm (SulfoCy5) taken in 20 or 30 s intervals. After 5 min of background measurements, the plate reader was paused for the first indicated fluorescent ligand(s) addition, before immediately returning the plate to the reader to continue luminescence readings. After 5 min, the reader was again paused to add the second fluorescent ligand (association assays) or competing ligand(s) (dissociation assays), before immediately continuing the measurements for the indicated time. Non-specific control binding was obtained by adding the indicated competing ligand(s) 5 min prior to the addition of the first fluorescent ligand.

FFA1-Nluc, sequence (O14842 whole entry): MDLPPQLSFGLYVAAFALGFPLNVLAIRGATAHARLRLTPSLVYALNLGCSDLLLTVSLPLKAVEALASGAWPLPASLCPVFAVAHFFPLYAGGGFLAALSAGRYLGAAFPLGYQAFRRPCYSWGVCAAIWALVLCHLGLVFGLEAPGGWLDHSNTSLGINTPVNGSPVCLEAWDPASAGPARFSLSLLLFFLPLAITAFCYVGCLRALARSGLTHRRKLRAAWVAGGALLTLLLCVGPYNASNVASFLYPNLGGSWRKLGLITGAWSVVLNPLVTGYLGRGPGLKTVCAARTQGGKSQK
FFA1, sequence (O14842 whole entry): as above

## COc1ccc(C(=O)NCC(C)(C)CNc2ccc([N+](=O)[O-])c3nonc23)c(N2CCC(COc3cccc(C(CC(=O)O)C4CC4)c3)CC2)c1.O=C(O)C(F)(F)F (stereo not shown) [TUG-2489]
FFA1
  pEC50: 5.29±0.04
FFA1; log[Ligand] -5
  Ca2+ Response as a % of T360 Response: 102.5277% and 96.3666% and 102.3411% and 80.8186% and 76.8959%
FFA1; log[Ligand] -5.5
  Ca2+ Response as a % of T360 Response: 75.8584% and 55.2490% and 64.4948% and 77.9746% and 61.7732% and 62.6510%
FFA1; log[Ligand] -6
  Ca2+ Response as a % of T360 Response: 11.4043% and 15.1652% and 19.0434% and 4.1691% and 0.1177% and 9.7037%
FFA1; log[Ligand] -6.5
  Ca2+ Response as a % of T360 Response: 0.7033% and -0.7918% and -3.1732% and -6.5594% and 0.0827% and 3.4744%
FFA1; log[Ligand] -7
  Ca2+ Response as a % of T360 Response: -3.1258% and 4.2395% and 1.6831% and -3.2821% and -0.2376% and 1.2224%
FFA1; log[Ligand] -8
  Ca2+ Response as a % of T360 Response: -0.4995% and 5.1700% and -1.2657% and 6.6097% and 0.3774% and -0.3774%
FFA1; log[Ligand] -9
  Ca2+ Response as a % of T360 Response: 0.4589% and 3.5934% and -2.5884% and -5.3677% and 0.8677% and 2.5453%

## COc1ccc(C(=O)N(CC(C)(C)CNc2ccc([N+](=O)[O-])c3nonc23)c2ccccc2)c(N2CCC(COc3cccc(C(CC(=O)O)C4CC4)c3)CC2)c1.O=C(O)C(F)(F)F (stereo not shown) [TUG-2490]
FFA1
  pEC50: 5.95±0.16
FFA1; log[Ligand] -5.5
  Ca2+ Response as a % of T360 Response: 93.1455% and 77.9850% and 75.8107% and 96.4232% and 72.2793% and 68.6021%
FFA1; log[Ligand] -6
  Ca2+ Response as a % of T360 Response: 53.6775% and 46.6859% and 50.0991% and 72.4727% and 32.6717% and 50.6607%
FFA1; log[Ligand] -6.5
  Ca2+ Response as a % of T360 Response: 16.7030% and 15.2768% and 30.6910% and 52.9860% and 26.5604% and 17.0828%
FFA1; log[Ligand] -7
  Ca2+ Response as a % of T360 Response: -0.5150% and -0.6020% and 9.0880% and 4.0961% and 1.0500% and 13.2109%
FFA1; log[Ligand] -8
  Ca2+ Response as a % of T360 Response: -0.3253% and 0.1971% and 2.2527% and 3.6975% and -0.7574% and 0.7574%
FFA1; log[Ligand] -9
  Ca2+ Response as a % of T360 Response: 3.6767% and 1.4233% and -0.8955% and -4.2309% and 0.8739% and -0.0879%

## COc1ccc(C(=O)N(CCNC(=O)OC(C)(C)C)c2ccccc2)c(N2CCC(COc3cccc(C(CC(=O)O)C4CC4)c3)CC2)c1.Cl (stereo not shown) [TUG-2455]
FFA1
  pEC50: 6.63±0.10
  EMax: 103±12%

## COc1ccc(C(=O)NCC(C)(C)CNC(=O)OC(C)(C)C)c(N2CCC(COc3cccc(C(CC(=O)O)C4CC4)c3)CC2)c1.Cl (stereo not shown) [TUG-2457]
FFA1
  pEC50: 6.62±0.15
  EMax: 108±3%

## CCCN1C(=O)c2ccccc2[C@@H](C(=O)O)[C@@H]1c1ccc(OCc2cccc(C(F)(F)F)c2)cc1 [TUG-2743]
FFA1-Nluc; 100 nM TUG-2591 and […] TUG-2597, NC = No competition
  pIC50 DISCo-BRET NBD/Nluc: 6.1±0.2
FFA1-Nluc; 100 nM TUG-2591 and […] TUG-2597, one site model, NC = No competition
  pIC50 DISCo-BRET SulfoCy5/NBD: 6.0±0.1
FFA1-Nluc; log[Ligand] -5
  Specific BRET (690/540), % of control: 6.26 % of control and 15.30 % of control and 0.00 % of control and 23.39 % of control and 7.57 % of control and 16.15 % of control and 4.80 % of control and 5.42 % of control
  Specific BRET (540/450), % of control: 61.42 % of control and 37.32 % of control and -37.32 % of control and -3.93 % of control and 3.93 % of control and 54.66 % of control and 43.23 % of control
FFA1-Nluc; log[Ligand] -5.5
  Specific BRET (690/540), % of control: 25.12 % of control and 40.23 % of control and 23.90 % of control and 52.64 % of control and 8.58 % of control and 35.72 % of control and 22.62 % of control and 24.58 % of control
  Specific BRET (540/450), % of control: 68.58 % of control and 86.33 % of control and -8.16 % of control and -102.04 % of control and 41.80 % of control and 13.93 % of control and 39.36 % of control and 39.62 % of control
FFA1-Nluc; log[Ligand] -6
  Specific BRET (690/540), % of control: 58.42 % of control and 58.33 % of control and 46.92 % of control and 53.66 % of control and 32.09 % of control and 48.03 % of control and 43.57 % of control and 46.72 % of control
  Specific BRET (540/450), % of control: 100.93 % of control and 79.17 % of control and 5.25 % of control and 9.91 % of control and 41.19 % of control and 34.87 % of control and 62.06 % of control
FFA1-Nluc; log[Ligand] -6.5
  Specific BRET (690/540), % of control: 76.32 % of control and 72.57 % of control and 71.58 % of control and 84.17 % of control and 56.21 % of control and 64.88 % of control and 65.73 % of control and 61.96 % of control
FFA1-Nluc; log[Ligand] -7
  Specific BRET (690/540), % of control: 89.22 % of control and 91.72 % of control and 94.47 % of control and 101.84 % of control and 86.98 % of control and 84.36 % of control and 91.26 % of control and 83.54 % of control
  Specific BRET (540/450), % of control: 106.08 % of control and 110.38 % of control and 76.97 % of control and 86.30 % of control and 79.83 % of control and 51.81 % of control and 67.53 % of control and 67.76 % of control
FFA1-Nluc; log[Ligand] -8
  Specific BRET (690/540), % of control: 93.65 % of control and 94.71 % of control and 131.47 % of control and 106.17 % of control and 87.89 % of control and 98.79 % of control and 100.59 % of control and 92.67 % of control
  Specific BRET (540/450), % of control: 118.40 % of control and 124.70 % of control and 235.57 % of control and 32.65 % of control and 76.75 % of control and 53.35 % of control and 80.89 % of control and 68.94 % of control
FFA1-Nluc; log[Ligand] -9
  Specific BRET (690/540), % of control: 99.33 % of control and 100.67 % of control and 26.06 % of control and 102.35 % of control and 91.83 % of control and 93.74 % of control
  Specific BRET (540/450), % of control: 129.56 % of control and 130.71 % of control and -41.98 % of control and 129.45 % of control and 107.24 % of control and 49.50 % of control and 87.02 % of control and 76.46 % of control
FFA1-Nluc; percentage of binding obtained in the absence of competing ligand
  'bottom' of the IC50 curve, DISCo-BRET NBD/Nluc: 10%
FFA1-Nluc; percentage of binding obtained in the absence of competing ligand, 100 nM TUG-2591 and […] TUG-2597
  'bottom' of the IC50 curve, DISCo-BRET SulfoCy5/NBD: 3.2%
FFA1-Nluc; using Kd TUG-2591 57 nM
  pKi DISCo-BRET SulfoCy5/NBD: 6.5±0.1
